In patent publication US6380384B1, “1,2-dihydro-2-oxoquinoline derivatives” (Taisho Pharmaceutical Co., Ltd., priority 1997, dated 2002):

target: T1, mitochondrial diazepam binding inhibitor receptor (MDR) (Rattus norvegicus, UniProt P16257); assay: MDR receptor binding assay ([3H]PK11195 displacement, crude mitochondria fractions from rat cerebral cortex); details: 50% inhibition of [3H]PK11195 (2 nM) binding; rat cerebral cortex crude mitochondria fraction, 4° C., 90 minutes
T1 construct: Crude mitochondria fractions prepared from rat cerebral cortex were used as a receptor sample; from tissue; host or cells: rat cerebral cortex, crude mitochondria fraction
Method: Experiment [MDR Receptor Binding Assay]
Crude mitochondria fractions prepared from rat cerebral cortex were used as a receptor sample, and [^3H]PK11195 was used as a [^3H]-labeled ligand.
A binding assay using the [^3H]-labeled ligand was carried out according to the following method as described in Journal of Pharmacology and Experimental Therapeutics, 262, 971(1992).
Preparation of Receptor Sample: Rat cerebral cortex was homogenized using a Teflon-coated homogenizer in a 10 mM HEPES buffer (pH 7.4) containing 0.32 M sucrose in ten volumes of the wet weight. The homogenate was centrifuged at 900×g for 10 minutes, and the resulting supernatant was centrifuged at 9,000×g for 10 minutes. The precipitate was suspended in a HEPES buffer to give a protein concentration of 1 mg/ml, and centrifuged at 12,000×g for 10 minutes. The resulting precipitate was suspended in a 50 mM HEPES buffer (pH 7.4) to give a crude mitochondria fraction.
MDR Binding Assay:. Mitochondria sample (1.0 mg protein/ml), [^3H]PK11195 (2 nM) and the test drug were reacted at 4° C. for 90 minutes.
After completion of the reaction, the reaction mixture was filtered with suction through a glass filter (GF/B) treated with 0.3% polyethyleneimine, and the radioactivity on the filter was measured by a liquid scintillation spectrometer.
The binding at the reaction in the presence of 10 μM PK11195 was defined as non-specific binding of [^3H]PK11195, and the difference between total binding and non-specific binding was defined as specific binding.

T1 sequence (P16257 whole entry): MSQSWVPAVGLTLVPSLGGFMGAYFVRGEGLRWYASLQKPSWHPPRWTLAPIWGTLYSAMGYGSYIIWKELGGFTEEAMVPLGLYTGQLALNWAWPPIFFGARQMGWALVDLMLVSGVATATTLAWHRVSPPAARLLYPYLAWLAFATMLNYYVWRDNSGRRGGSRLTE

Structure (SMILES)	IC50 [nM]
CCCCCCCCCCN(CCCCCCCCCC)C(=O)c1cc2ccccc2n(Cc2ccccc2)c1=O [Compound 06]	53.4
CCCCCCN(CCCCCC)C(=O)c1cc2ccccc2n(Cc2cccnc2)c1=O [Compound 19, N,N-dihexyl-1-(3-picolyl)-1,2-dihydro-2-oxoquinoline-3-carboxamide]	0.368
CCCN(CCC)C(=O)c1cc2ccccc2n(Cc2ccccc2)c1=O [Compound 04]	1.71
CCCCCCN(CCCCCC)C(=O)c1cc2ccccc2n(Cc2ccccc2)c1=O [Compound 05]	0.159
CCCCCCN(CCCCCC)C(=O)c1cc2ccccc2n(CCc2ccccc2)c1=O [Compound 21]	6.58
CCCCCCN(CCCCCC)C(=O)c1cc2ccccc2n(Cc2ccccn2)c1=O [Compound 18]	0.404

Second part, the compound after the results:

IC50 [nM]	Structure (SMILES)
0.132	CCCCCCN(CCCCCC)C(=O)c1cc2ccc(Cl)cc2n(Cc2ccccc2)c1=O [Compound 23]
0.192	CCCCCCN(CCCCCC)C(=O)c1cc2ccccc2n(Cc2ccncc2)c1=O [Compound 20]
